The record followed here is patent publication US9156824B2, “CDC7 inhibitors” (Eli Lilly and Company, priority 2013, dated 2015).

The target of the experiment is T1, CDC7/DBF4 (Homo sapiens, UniProt O00311).
T1 construct: host or cells: insect cells
Description: CDC7/DBF4 in vitro enzyme assay (Transcreener Kinase ADP-FP). The format is biochemical. The following applies: ATP 5 μM, MCM2 400 nM, 60 minutes, read-out: IC50 against CDC7/DBF4 kinase. How it is done: The Transcreener™ Kinase ADP-FP assay is used to determine compound IC50 values against CDC7/DBF4 kinase. The Kinase ADP-FP assay assesses the activity of CDC7/DBF4 in the presence of compound inhibitors by measuring the concentration of ADP formed in a kinase reaction. The kinase reaction is performed using a 25 microliter reaction volume in 96 well assay plate. For the ADP-FP assay, the reagents are added to obtain the final reaction conditions of HEPES (25 mM) pH 7.5, 0.03% Triton® X-100, magnesium chloride (10 mM), DTT (1 mM), MCM2 (400 nM) (Amino Acid 1-209, a physiological substrate of CDC7/DBF4), spermine (4 mM), CDC7/DBF4 (2,640 ng/mL) (recombinant human CDC7/DBF4 expressed in insect cells), 4% dimethyl sulfoxide and serial dilutions of compound (diluted 1:3 from 20,000 nM to 1 nM). Enzyme and substrate is added to compound followed by ATP to 5 μM to start the reaction. The plates are incubated at room temperature for 60 minutes.
For the ADP-FP format add 25 microliters of a quench detection reagent containing HEPES (52 mM) pH 7.5, EDTA (20 mM), sodium chloride (0.4 M), polyoxyethyleneglycol dodecyl ether (0.02%) (BRIJ-35™), anti-ADP antibody (10 μg/mL), and ADP (4 nM) Transcreener® ADP Alexa Fluor® 633 tracer to quench the reaction. The plates are incubated for 1 hour, and then read in a Wallac EnVision™ 2104 Multilabel Reader (PerkinElmer) in Fluorescence Polarization mode using polarizing filters of Ex620nm and Em688nm wavelength. Millipolarization (mP) raw data is converted to micromolar ADP using a prepared ADP/ATP standard curve starting at 5 μM ADP 1:1 serial dilution in reaction buffer to 0.0025 μM ADP. The IC50 value for each compound is derived using percent inhibition data calculated from the μM ADP reaction data relative to on-plate controls (DMSO versus 100 mM EDTA inhibited enzyme controls). The percent inhibition and ten-point compound concentration data is then fitted to a four-parameter logistic equation.

Molecules are shown by their SMILES.

T1 sequence (O00311 whole entry): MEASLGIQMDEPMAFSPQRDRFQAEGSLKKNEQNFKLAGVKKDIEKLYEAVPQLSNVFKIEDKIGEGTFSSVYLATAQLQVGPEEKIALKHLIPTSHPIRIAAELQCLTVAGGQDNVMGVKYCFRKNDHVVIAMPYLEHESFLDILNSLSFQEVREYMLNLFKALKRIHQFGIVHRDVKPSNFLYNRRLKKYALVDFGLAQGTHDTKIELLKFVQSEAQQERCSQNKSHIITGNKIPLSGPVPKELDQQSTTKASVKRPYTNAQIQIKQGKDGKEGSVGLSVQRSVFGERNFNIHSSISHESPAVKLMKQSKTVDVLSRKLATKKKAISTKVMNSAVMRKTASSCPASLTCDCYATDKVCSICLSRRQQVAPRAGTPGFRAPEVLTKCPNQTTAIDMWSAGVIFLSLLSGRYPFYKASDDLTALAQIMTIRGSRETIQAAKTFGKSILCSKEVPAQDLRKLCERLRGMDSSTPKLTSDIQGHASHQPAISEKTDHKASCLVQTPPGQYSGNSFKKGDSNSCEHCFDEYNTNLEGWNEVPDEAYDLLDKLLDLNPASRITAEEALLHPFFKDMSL
T1 sequence (Q9UBU7 whole entry partner): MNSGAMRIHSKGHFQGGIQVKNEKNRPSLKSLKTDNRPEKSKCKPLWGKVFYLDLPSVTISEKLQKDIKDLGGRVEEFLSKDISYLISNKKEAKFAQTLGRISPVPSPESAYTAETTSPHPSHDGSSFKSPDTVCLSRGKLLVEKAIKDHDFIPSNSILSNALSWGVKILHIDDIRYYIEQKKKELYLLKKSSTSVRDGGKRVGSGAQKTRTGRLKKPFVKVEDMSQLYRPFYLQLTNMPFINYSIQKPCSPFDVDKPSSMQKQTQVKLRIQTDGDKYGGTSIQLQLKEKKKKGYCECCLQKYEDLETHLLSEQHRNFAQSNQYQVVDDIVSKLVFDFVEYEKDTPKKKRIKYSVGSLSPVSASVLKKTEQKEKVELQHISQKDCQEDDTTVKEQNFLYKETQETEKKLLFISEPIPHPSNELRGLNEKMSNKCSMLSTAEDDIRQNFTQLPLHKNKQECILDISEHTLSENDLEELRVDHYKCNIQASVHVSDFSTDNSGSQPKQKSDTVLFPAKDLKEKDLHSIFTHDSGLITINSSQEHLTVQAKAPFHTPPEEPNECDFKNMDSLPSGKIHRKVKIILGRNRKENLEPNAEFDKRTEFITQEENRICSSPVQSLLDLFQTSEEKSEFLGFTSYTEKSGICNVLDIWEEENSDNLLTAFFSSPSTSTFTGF

`CC1(c2ncncc2F)NC(=O)c2cc(-c3cn[nH]c3)ccc21` (single isomer, unassigned; isomer 2) [Example 4, 3-(5-Fluoropyrimidin-4-yl)-3-methyl-6-(1H-pyrazol-4-yl)isoindolin-1-one, Isomer 2, Hydrate]: the IC50 is 3.3 nM.
